According to patent US20230002352A1, “SULFONAMIDE DERIVATIVES AS CTPS1 INHIBITORS” (Step Pharma S.A.S., priority 2019, published 2023):
pIC50: −log10 of the molar value.

Assays:
[1] = biological target: T1, human CTPS1 (Homo sapiens, UniProt P17812); test: Human CTPS1 enzyme inhibition (ADP-Glo Max assay); type: biochemical; settings: Table 23; ADP-Glo Max assay; read-out: CTPS1 (Human CTPS1 Enzyme Inhibition data grouped by potency range, IC50)
T1 construct: purchased Proteros biostructures GmbH
T1 sequence (P17812 1-591): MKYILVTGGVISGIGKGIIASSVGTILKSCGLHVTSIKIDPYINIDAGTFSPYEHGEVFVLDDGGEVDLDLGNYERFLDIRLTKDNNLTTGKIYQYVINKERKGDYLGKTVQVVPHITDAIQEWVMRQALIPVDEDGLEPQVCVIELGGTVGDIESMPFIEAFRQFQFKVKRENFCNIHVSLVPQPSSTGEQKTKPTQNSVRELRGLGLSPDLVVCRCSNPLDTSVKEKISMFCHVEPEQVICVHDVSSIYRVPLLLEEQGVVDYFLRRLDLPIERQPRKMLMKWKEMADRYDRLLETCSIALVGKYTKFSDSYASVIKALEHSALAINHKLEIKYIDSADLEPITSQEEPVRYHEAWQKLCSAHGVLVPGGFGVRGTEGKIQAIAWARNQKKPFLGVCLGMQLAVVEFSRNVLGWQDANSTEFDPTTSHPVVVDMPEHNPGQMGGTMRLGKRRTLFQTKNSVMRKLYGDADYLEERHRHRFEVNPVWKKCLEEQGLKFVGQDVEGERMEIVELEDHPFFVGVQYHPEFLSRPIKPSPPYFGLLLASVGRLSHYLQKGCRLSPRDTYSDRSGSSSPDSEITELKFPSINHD
Method in brief: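 Full-length FLAG-His-tagged human CTPS1 and compound were preincubated 10 min at 25 °C in 50 mM Tris pH 8.0, 10 mM MgCl2, 0.01% Tween-20, 2 mM L-cysteine. Substrate mix: ATP 0.31 mM, GTP 0.034 mM, UTP 0.48 mM, glutamine 0.186 mM; linear-phase reaction at 25 °C. ADP-Glo Max luminescence; IC50 from inhibition curve.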

[2] = tested on: human CTPS1 versus CTPS2; test: Human CTPS1 versus CTPS2 selectivity assessment by RapidFire/MS analysis; type: biochemical; settings: Table 26
Description: Biological Example 2—RapidFire/MS-Based Enzyme Selectivity Assays.
Human CTPS1 Versus CTPS2 Selectivity Assessment by RapidFire/MS Analysis.
The enzyme inhibitory activities against each target isoform of interest may be determined for the compounds of the invention using an optimised RapidFire high-throughput mass spectrometry (RF/MS) assay format. RF/MS assays for both human CTPS1 and CTPS2 may be performed in assay buffer consisting of 50 mM HEPES (Merck), 20 mM MgCl2, 5 mM KCl, 1 mM DTT, 0.01% Tween-20, pH to 8.0 accordingly. Human full-length active C-terminal FLAG-His-tag CTPS1 (UniProtKB-P17812, CTPS[1-591]-[…]) may be obtained from Proteros biostructures GmbH. Human full length active C-terminal FLAG-His-Avi tagged CTPS2 (UniProtKB-Q9NRF8, CTPS2 [1-586]-[…]) may be obtained from Harker Bio.
Human CTPS (1 or 2) protein may be prepared in 1× assay buffer to the final working protein concentration required for the reaction. A 2 uL volume per well of 2×CTPS (1 or 2) protein may be mixed with 40 nL of compound using acoustic (ECHO) delivery and incubated for 10 minutes at 25° C. Each isoform enzymatic reaction may be subsequently initiated by addition of 2 uL per well of a 2× substrate mix in assay buffer. For hCTPS1: ATP (0.3 mM), UTP (0.2 mM), GTP (0.07 mM) and L-glutamine (0.1 mM). For hCTPS2: ATP (0.1 mM), UTP (0.04 mM), GTP (0.03 mM) and L-glutamine (0.1 mM). Each mixture may be incubated for an appropriate amount of time per isoform within the determined linear phase of the reaction at 25° C. A 60 uL volume of stop solution (1% formic acid with 0.5 uM ^13C9-^15N3-CTP in H2O) may be added and the plate immediately heat-sealed and centrifuged for 10 minutes at 4,000 rpm. Following centrifugation, plates may be loaded onto the Agilent RapidFire microfluidic solid phase extraction system coupled to an AP14000 triple quadrupole mass spectrometer (RF/MS) for analysis.
In all cases, the enzyme converts UTP to CTP. Highly specific and sensitive multiple reaction monitoring (MRM) MS methods may be optimised for the detection of the enzymatic reaction product, CTP, and the stable isotope labelled product standard ^13C9-^15N3-CTP. Readout for data analysis may be calculated as the ratio between the peak area of the product CTP and the internal standard ^13C9-^15N3-CTP. For data reporting, the following equation may be used: […]
For each screening plate, the means of the negative (DMSO) and positive control values were used for the calculation of the respective assay window (S/B) and Z′ values. The median of the respective control values was used for calculation of percent inhibition according to the following equation: […]
Percentage inhibition was then plotted against compound concentration, and the 50% inhibitory concentration (IC50) was determined from the resultant concentration-response curve.
Fold selectivity between CTPS1 and CTPS2 was subsequently calculated according to the following equation: […]

| SMILES | pIC50 [1] | Selectivity (fold selectivity between CTPS1 and CTPS2) [2] |
| --- | --- | --- |
| CCOc1cncc(-c2ccc(NC(=O)Cc3ccnc(NS(=O)(=O)C4CC4)n3)cc2)n1 [Example P18, 2-(2-(Cyclopropanesulfonamido)pyrimidin-4-yl)-N-(4-(6-ethoxypyrazin-2-yl)phenyl)acetamide] | ≥ 7.00 | ++ (>30-60 fold (++)) |
| CC(C)Oc1cncc(-c2ccc(NC(=O)Cc3ccnc(NS(=O)(=O)C4CC4)n3)cc2)n1 [Example P21] | ≥ 7.00 | ++ (>30-60 fold (++)) |
| CCOc1cncc(-c2ccc(NC(=O)C(C)(C)c3ccnc(NS(=O)(=O)C4CC4)n3)nc2)n1 [Example P31] | ≥ 7.00 | +++ (>60 fold (+++)) |
| CCOc1cncc(-c2ccc(NC(=O)C(C)(C)c3ccnc(NS(=O)(=O)C4CC4)n3)c(C#N)c2)n1 [Example P34] | ≥ 7.00 | + (2-30 fold (+)) |
| CCOc1cncc(-c2ccc(NC(=O)C(C)(C)c3ccnc(NS(=O)(=O)C4CC4)n3)c(F)c2)n1 [Example P38] | ≥ 7.00 | + (2-30 fold (+)) |
| CC(C)Oc1cncc(-c2ccc(NC(=O)C(C)(C)c3ccnc(NS(=O)(=O)C4CC4)n3)c(F)c2)n1 [Example P39] | ≥ 7.00 | + (2-30 fold (+)) |
| CC(C)(C(=O)Nc1ccc(-c2cccnc2)cc1)c1ccnc(NS(=O)(=O)C2CC2)n1 [Example P59] | 5.00 to 6.00 | + (2-30 fold (+)) |
| CCOc1cncc(-c2ccc(NC(=O)C(C)(C)c3nc(NS(=O)(=O)C4CC4)ncc3F)cc2)n1 [Example P68] | 6.00 to 7.00 | ++ (>30-60 fold (++)) |
| CCOc1cncc(-c2ccc(NC(=O)C(C)(C)c3nc(NS(=O)(=O)C4CC4)ncc3C)cc2)n1 [Example P70] | 5.00 to 6.00 | + (2-30 fold (+)) |
| CCOc1cncc(-c2ccc(NC(=O)C(C)(C)c3ccnc(NS(=O)(=O)CC)n3)cc2)n1 [Example P74] | 6.00 to 7.00 | ++ (>30-60 fold (++)) |
| CCOc1cncc(-c2ccc(NC(=O)C(C)(C)c3ccnc(NS(C)(=O)=O)n3)nc2)n1 [Example P76] | 6.00 to 7.00 | ++ (>30-60 fold (++)) |
| CCOc1cncc(-c2ccc(NC(=O)C3(c4ccnc(NS(=O)(=O)C5CC5)n4)CC3)cc2)n1 [Example P83] | ≥ 7.00 | +++ (>60 fold (+++)) |
| CCOc1cncc(-c2ccc(NC(=O)C3(c4ccnc(NS(=O)(=O)C5CC5)n4)CCOCC3)nc2)n1 [Example P115, 4-(2-(Cyclopropanesulfonamido)pyrimidin-4-yl)-N-(5-(6-ethoxypyrazin-2-yl)pyridin-2-yl)tetrahydro-2H-pyran-4-carboxamide] | ≥ 7.00 | +++ (>60 fold (+++)) |
| CCOc1cncc(-c2ccc(C(=O)NCc3ccnc(NS(=O)(=O)C4CC4)n3)cc2)n1 [Example P118] | ≥ 7.00 | +++ (>60 fold (+++)) |
| CC(C)(C(=O)Nc1ccc(-c2cncc(C3CC3)n2)cn1)c1ccnc(NS(=O)(=O)C2CC2)n1 [Example P125] | 6.00 to 7.00 | ++ (>30-60 fold (++)) |
| CC(C)(C(=O)Nc1ccc(-c2cncc(C3CC3)n2)cc1F)c1ccnc(NS(=O)(=O)C2CC2)n1 [Example P128] | 6.00 to 7.00 | + (2-30 fold (+)) |

| SMILES | pIC50 [1] | Selectivity (fold selectivity between CTPS1 and CTPS2) [2] |
| --- | --- | --- |
| CC(C)c1cncc(-c2ccc(NC(=O)C(C)(C)c3ccnc(NS(=O)(=O)C4CC4)n3)cc2)n1 [Example P132] | 6.00 to 7.00 | ++ (>30-60 fold (++)) |
| CCOc1cncc(-c2ccc(NC(=O)C3(c4ccnc(NS(=O)(=O)C5CC5)n4)CCCC3)nc2)n1 [Example P136] | ≥ 7.00 | +++ (>60 fold (+++)) |
| CCOc1cncc(-c2ccc(NC(=O)C3(c4ccnc(NS(=O)(=O)C5CC5)n4)CCOCC3)c(F)c2)n1 [Example P143] | ≥ 7.00 | +++ (>60 fold (+++)) |
| CCOc1cncc(-c2ccc(NC(=O)C(CCOC)c3ccnc(NS(=O)(=O)C4CC4)n3)nc2)n1 (stereo not shown) [Example P145] | ≥ 7.00 | +++ (>60 fold (+++)) |
| CCOc1cncc(-c2ccc(NC(=O)C(CCOC)c3ccnc(NS(=O)(=O)C4CC4)n3)c(F)c2)n1 (stereo not shown) [Example P146] | ≥ 7.00 | +++ (>60 fold (+++)) |
| CCOc1cncc(-c2ccc(NC(=O)C(F)(CC)c3ccnc(NS(C)(=O)=O)n3)nc2)n1 (stereo not shown) [Example P151] | ≥ 7.00 | +++ (>60 fold (+++)) |
| CCOc1cncc(-c2cnc(NC(=O)C(CC)c3ccnc(NS(=O)(=O)C4CC4)n3)c(C)c2)n1 (stereo not shown) [Example P155] | ≥ 7.00 | + (2-30 fold (+)) |
| CCC(C(=O)Nc1ncc(-c2cncc(OC)n2)cc1F)c1ccnc(NS(=O)(=O)C2CC2)n1 (stereo not shown) [Example P158] | 6.00 to 7.00 | + (2-30 fold (+)) |
| CCC(C(=O)Nc1ccc(-c2cncc(OC)n2)cn1)c1ccnc(NS(=O)(=O)C2CC2)n1 (stereo not shown) [Example P159] | ≥ 7.00 | +++ (>60 fold (+++)) |
| CCOc1cncc(-c2ccc(NC(=O)C(CC)c3ccnc(NS(=O)(=O)C4CC4)n3)c(C)c2)n1 (stereo not shown) [Example P161] | ≥ 7.00 | + (2-30 fold (+)) |
| CCOc1cncc(-c2cnc(NC(=O)C(CC)c3ccnc(NS(=O)(=O)C4CC4)n3)c(F)c2)n1 (stereo not shown) [Example P162] | ≥ 7.00 | ++ (>30-60 fold (++)) |
| CCOc1cncc(-c2ccc(NC(=O)C(C)(CC)c3ccnc(NS(=O)(=O)C4CC4)n3)nc2)n1 (stereo not shown) [Example P163] | ≥ 7.00 | +++ (>60 fold (+++)) |
| CCOc1cncc(-c2ccc(NC(=O)C(OC)c3ccnc(NS(=O)(=O)C4CC4)n3)cc2)n1 (stereo not shown) [Example P164] | ≥ 7.00 | + (2-30 fold (+)) |
| CCOc1cncc(-c2ccc(NC(=O)C(C)(C)c3cncc(NS(=O)(=O)C4CC4)n3)nc2)n1 [Example P195] | ≥ 7.00 | +++ (>60 fold (+++)) |
| CCOc1cncc(-c2ccc(NC(=O)C(C)(C)c3cncc(NS(=O)(=O)C4CC4)n3)cc2)n1 [Example P196] | ≥ 7.00 | +++ (>60 fold (+++)) |
| CCOc1cncc(-c2ccc(NC(=O)C3(c4cncc(NS(=O)(=O)C5CC5)n4)CCOCC3)nc2)n1 [Example P197] | ≥ 7.00 | +++ (>60 fold (+++)) |
